Reference: patent US20200030304A1 (priority 2017, published 2020)

Tested on: DFP-induced status epilepticus
Conditions: rat, in vivo

Compound | effect on behavioral seizure scores induced by DFP | mortality | termination of status epilepticus / EEG epileptiform activity
Cc1ncc2n1-c1ccc(Cl)cc1C(c1ccccc1F)=NC2 [Midazolam, midazolam] | in-effective in reducing the behavioral seizure scores | no mortality | –
CCCC(CCC)C(=O)[O-].[Na+] [sodium valproate] | – | – | intermittent spikes and seizure activity during the whole 5 h of EEG recording
